Measurements taken from PMC8480901 (PLoS ONE, 2021).
Where “and” joins values, the source holds several entries; their conditions need not be identical. Identical values can stand only once.

Tested on: TNF-α, IL-6, IL-1β, GM-CSF, CXCL-1, CXCL-2, CCL-2 and MMP-9 in lung tissue
Assay: LPS-induced cytokines, chemokines and MMP-9 in mouse lung homogenates (Luminex, ELISA)
Conditions: lung homogenate, LPS; for CXCL1 / CXCL2 / GM-CSF / IL-1β / IL-6 / MMP9 / TNFα / CCL2: individual animal, listed as Lef; for CCL2 Mean / CXCL1, Mean / CXCL2, Mean / GM-CSF Mean / IL-1β Mean / IL-6 Mean / MMP9, Mean / TNFα Mean: mean of 8

Compound: C=C[C@]1(C)C[C@@H](OC(=O)CS[C@@H]2CC[C@@H](N)C[C@H]2O)[C@]2(C)[C@H](C)CC[C@]3(CCC(=O)[C@H]32)[C@@H](C)[C@@H]1O [Lefamulin]
- CXCL1 (10 mg/kg): 6971.93 pg/mL and 4329.90 pg/mL and 5523.90 pg/mL and 4582.09 pg/mL and 5582.50 pg/mL and 5633.76 pg/mL and 4136.19 pg/mL and 3104.94 pg/mL
- CXCL2 (10 mg/kg): 5052.98 pg/mL and 3065.52 pg/mL and 3267.04 pg/mL and 2748.29 pg/mL and 3142.03 pg/mL and 3891.00 pg/mL and 3712.25 pg/mL and 1806.80 pg/mL
- GM-CSF (10 mg/kg): 67.71 pg/mL and 29.84 pg/mL and 24.75 pg/mL and 26.44 pg/mL and 92.13 pg/mL and 45.24 pg/mL
- IL-1β (10 mg/kg): 13048 pg/mL and 11802 pg/mL and 8955 pg/mL and 11618 pg/mL and 14924 pg/mL and 15796 pg/mL and 14205 pg/mL and 13632 pg/mL
- IL-6 (10 mg/kg): 250.42 pg/mL and 122.57 pg/mL and 71.56 pg/mL and 75.97 pg/mL and 378.35 pg/mL and 273.00 pg/mL and 109.22 pg/mL
- MMP9 (10 mg/kg): 2581 pg/mL and 2222 pg/mL and 2051 pg/mL and 2196 pg/mL and 2373 pg/mL and 1878 pg/mL and 2354 pg/mL and 2294 pg/mL
- TNFα (10 mg/kg): 82.13 pg/mL and 385.92 pg/mL and 198.20 pg/mL and 183.71 pg/mL and 132.63 pg/mL and 135.37 pg/mL and 337.98 pg/mL and 306.86 pg/mL
- CCL2 Mean (10 mg/kg): 764 pg/mL
- CXCL1, Mean (10 mg/kg): 4983 pg/mL
- CXCL2, Mean (10 mg/kg): 3336 pg/mL
- GM-CSF Mean (10 mg/kg): 43 pg/mL
- IL-1β Mean (10 mg/kg): 12997 pg/mL
- IL-6 Mean (10 mg/kg): 175 pg/mL
- MMP9, Mean (10 mg/kg): 2244 pg/mL
- TNFα Mean (10 mg/kg): 220 pg/mL
- CCL2 % reduction (30 mg/kg): 105%
- CXCL1 % reduction (30 mg/kg): 52%
- CXCL2 % reduction (30 mg/kg): 61%
- GM-CSF % reduction (30 mg/kg): 95%
- IL-1β % reduction (30 mg/kg): 8%
- IL-6 % reduction (30 mg/kg): 120%
- MMP9 % reduction (30 mg/kg): 26%
- TNFα % reduction (30 mg/kg): 77%
- CCL2 (30 mg/kg): 664.18 pg/mL and 229.87 pg/mL and 256.42 pg/mL and 281.81 pg/mL and 306.24 pg/mL and 172.04 pg/mL
- CXCL1 (30 mg/kg): 9099.72 pg/mL and 7572.60 pg/mL and 6087.32 pg/mL and 5765.52 pg/mL and 5509.25 pg/mL and 4685.62 pg/mL and 6328.54 pg/mL and 4359.63 pg/mL
- CXCL2 (30 mg/kg): 7789.00 pg/mL and 4810.48 pg/mL and 4106.80 pg/mL and 4675.09 pg/mL and 4634.09 pg/mL and 3899.14 pg/mL and 3943.89 pg/mL and 3825.96 pg/mL
- GM-CSF (30 mg/kg): 46.10 pg/mL and 24.75 pg/mL and 27.29 pg/mL and 23.05 pg/mL and 21.37 pg/mL and 16.32 pg/mL and 9.66 pg/mL
- IL-1β (30 mg/kg): 12246 pg/mL and 8161 pg/mL and 9564 pg/mL and 10656 pg/mL and 10104 pg/mL and 9202 pg/mL and 9081 pg/mL and 11831 pg/mL
- IL-6 (30 mg/kg): 118.12 pg/mL and 87.03 pg/mL and 60.54 pg/mL and 67.15 pg/mL and 58.34 pg/mL and 45.17 pg/mL and 29.90 pg/mL and 48.46 pg/mL
- MMP9 (30 mg/kg): 2129 pg/mL and 1886 pg/mL and 1848 pg/mL and 1924 pg/mL and 1726 pg/mL and 1867 pg/mL and 2081 pg/mL and 2097 pg/mL
- TNFα (30 mg/kg): 186.35 pg/mL and 395.67 pg/mL and 202.12 pg/mL and 215.17 pg/mL and 246.13 pg/mL and 275.41 pg/mL and 284.25 pg/mL and 181.07 pg/mL
- CCL2 Mean (30 mg/kg): 296 pg/mL
- CXCL1, Mean (30 mg/kg): 6176 pg/mL
- CXCL2, Mean (30 mg/kg): 4711 pg/mL
- GM-CSF Mean (30 mg/kg): 23 pg/mL
- IL-1β Mean (30 mg/kg): 10106 pg/mL
- IL-6 Mean (30 mg/kg): 64 pg/mL
- MMP9, Mean (30 mg/kg): 1945 pg/mL
- TNFα Mean (30 mg/kg): 248 pg/mL
- CCL2 % reduction (100 mg/kg): 107%
- CXCL1 % reduction (100 mg/kg): 57%
- CXCL2 % reduction (100 mg/kg): 64%
- GM-CSF % reduction (100 mg/kg): 96%
- IL-1β % reduction (100 mg/kg): 24%
- IL-6 % reduction (100 mg/kg): 117%
- MMP9 % reduction (100 mg/kg): 53%
- TNFα % reduction (100 mg/kg): 81%
- CCL2 (100 mg/kg): 329.86 pg/mL and 256.42 pg/mL and 172.04 pg/mL and 139.64 pg/mL
- CXCL1 (100 mg/kg): 7499.26 pg/mL and 6087.32 pg/mL and 5076.24 pg/mL and 5758.20 pg/mL and 5443.29 pg/mL and 4906.96 pg/mL and 4656.06 pg/mL and 5472.61 pg/mL
- CXCL2 (100 mg/kg): 5382.65 pg/mL and 5518.93 pg/mL and 4695.59 pg/mL and 3380.13 pg/mL and 4061.97 pg/mL and 3178.30 pg/mL and 3700.08 pg/mL and 4913.16 pg/mL
- GM-CSF (100 mg/kg): 21.37 pg/mL and 19.68 pg/mL and 33.25 pg/mL and 14.65 pg/mL and 16.32 pg/mL and 11.32 pg/mL
- IL-1β (100 mg/kg): 10645 pg/mL and 6459 pg/mL and 7591 pg/mL and 8558 pg/mL and 9892 pg/mL and 7429 pg/mL and 7844 pg/mL and 8730 pg/mL
- IL-6 (100 mg/kg): 135.95 pg/mL and 78.18 pg/mL and 127.03 pg/mL and 99.22 pg/mL and 71.56 pg/mL and 56.14 pg/mL and 105.88 pg/mL
- MMP9 (100 mg/kg): 2385 pg/mL and 1353 pg/mL and 1095 pg/mL and 1490 pg/mL and 1351 pg/mL and 1232 pg/mL and 1807 pg/mL and 1236 pg/mL
- TNFα (100 mg/kg): 204.74 pg/mL and 121.62 pg/mL and 366.33 pg/mL and 248.69 pg/mL and 116.08 pg/mL and 181.07 pg/mL and 124.38 pg/mL and 233.28 pg/mL
- CCL2 Mean (100 mg/kg): 209 pg/mL
- CXCL1, Mean (100 mg/kg): 5612 pg/mL
- CXCL2, Mean (100 mg/kg): 4354 pg/mL
- GM-CSF Mean (100 mg/kg): 19 pg/mL
- IL-1β Mean (100 mg/kg): 8394 pg/mL
- IL-6 Mean (100 mg/kg): 91 pg/mL
- MMP9, Mean (100 mg/kg): 1494 pg/mL
- TNFα Mean (100 mg/kg): 200 pg/mL
